Results: the OPERA property sets (Mansouri et al. 2018)

Details: for log10 BCF / log10 biotransformation half-life (days): fish

Row | SMILES | melting point [°C] | boiling point [°C] | other results
1 | Oc1ccccc1-c1nc2ccccc2s1 | 131 | – | –
2 | FCBr | – | 19 | –
3 | Cc1nccc2c1[nH]c1ccccc12 | 236 | – | –
4 | CCCCCCCCCCCCCBr | 6.2 | 296 | log10 vapour pressure (mmHg): -2.87
5 | O=S1(=O)CC=CC1 | 64.5 | – | –
6 | C=C(C)C=O | -81 | 68.4 | log10 Henry constant (atm·m³/mol): -3.63; log10 vapour pressure (mmHg): 2.19
7 | C=CCCC=C | -141 | 59.4 | log10 vapour pressure (mmHg): 2.34
8 | C[C@@H]1C[C@H]2[C@@H]3CCC4=CC(=O)C=C[C@]4(C)[C@@]3(F)[C@@H](O)C[C@]2(C)[C@@]1(O)C(=O)CO | 248 | – | –
9 | CCCCCCCCCCCCN(C)C | 22 | 260 | ready biodegradability: readily biodegradable
10 | OCC1CC23CCC1(CC2)CC3CO (configuration not stated) | – | – | ready biodegradability: not readily biodegradable
11 | C[C@@H]1CCCC[C@@H]1C (racemic) | -70 | – | –
12 | CCNCCN(C)C | – | 134 | –
13 | COc1cc(Cl)c(Cl)c(Cl)c1O | – | – | log10 Koc (L/kg): 2.8; log10 vapour pressure (mmHg): -2.73; log10 BCF: 1.97
14 | O=C(O)C(Cl)Br (racemic) | 31.5 | 215 | –
15 | CCCCCCCCCCCCCCCCCC(=O)OC(=O)CCCCCCCCCCCCCCCCC | 72 | – | –
16 | CP(=O)(O)CCC(N)C(=O)O (configuration not stated) | – | – | log10 Koc (L/kg): 2.63; ready biodegradability: readily biodegradable
17 | O=C(O)CCCc1ccccc1 | 52 | 290 | –
18 | Cc1cc(N)ccc1N | 64 | 274 | –
19 | OCC(F)(F)F | -43.5 | 74 | log10 Henry constant (atm·m³/mol): -4.76; log10 vapour pressure (mmHg): 1.85
20 | Clc1c(Cl)c(Cl)c(Cl)c(Cl)c1Cl | 232 | 325 | log10 Henry constant (atm·m³/mol): -2.77; log10 Koa: 7.38; log10 Koc (L/kg): 3.74; log10 vapour pressure (mmHg): -4.74; ready biodegradability: not readily biodegradable; log10 BCF: 4.33; log10 biotransformation half-life (days): 2.44
21 | c1ccc2cc3cc4cc5ccccc5cc4cc3cc2c1 | 257 | – | ready biodegradability: not readily biodegradable
22 | O=[N+]([O-])c1ccc(S(=O)(=O)O)cc1 | – | – | ready biodegradability: not readily biodegradable

Row | SMILES | melting point [°C] | boiling point [°C] | other results
23 | C=CCC(C)(O)CC=C | – | 158 | –
24 | CCN(CC)c1ccc(Br)cc1 | 38 | 270 | –
25 | O=[N+]([O-])c1ccc(O[C@@H]2O[C@H](CO)[C@H](O)[C@H](O)[C@H]2O)cc1 | 189 | – | –
26 | O=C1c2ccccc2C(=O)N1Cc1ccccc1 | 116 | – | –
27 | Cc1cc(C)[nH]n1 | 108 | 218 | –
28 | CN(C)c1ccc2c(c1)Sc1cc(N(C)C)ccc1N2C(=O)c1ccccc1 | 195 | – | –
29 | C[Si](F)(F)c1ccccc1 | – | – | log10 vapour pressure (mmHg): 0.881
30 | CCCCCCCCCCCCCCCCCCCCCCCCCCC | 59.5 | 442 | log10 biodegradation half-life (days): 2.15; log10 vapour pressure (mmHg): -6.55
31 | ON=Cc1ccccc1O | 57 | – | –
32 | CCCC1CCCCC1 | -94.9 | 157 | log10 vapour pressure (mmHg): 0.622
33 | NC(=O)c1ccc([N+](=O)[O-])cc1Cl | 172 | – | ready biodegradability: readily biodegradable
34 | CCCCCCCCCCCCCCCCCCCCCCCCCCCC | 64.5 | 432 | log10 biodegradation half-life (days): 2.1; log10 vapour pressure (mmHg): -8.8; ready biodegradability: readily biodegradable
35 | CCOc1ccc(O)cc1 | 66.5 | 246 | –
36 | C#CC=C | – | 5.1 | log10 vapour pressure (mmHg): 3.13
37 | O=C(O)CNCC(=O)O | 248 | – | –
38 | Cc1ccccc1Oc1cccnn1 | 78 | – | –
39 | NCCNCCO | -38 | 239 | ready biodegradability: not readily biodegradable; log10 BCF: 0.46
40 | CCCCP(=O)(CCCC)CCCC | 64 | – | –
41 | COC(=O)C1(S(=O)(=O)c2ccc(Br)cc2)CCCCC1 | 112 | – | –
42 | C=C(CC(=O)O)C(=O)O | 175 | – | ready biodegradability: readily biodegradable
43 | CC(C)[C@@H](C)/C=C/[C@@H](C)[C@H]1CC[C@H]2/C(=C/C=C3\C[C@@H](O)CC[C@@H]3C)CCC[C@]12C | 126 | – | –
44 | C=CC1CNC(=S)O1 (configuration not stated) | 50 | – | –

Row | SMILES | melting point [°C] | boiling point [°C] | other results
45 | CC1(C)C(C=C(Cl)Cl)C1C(=O)OCc1cccc(Oc2ccccc2)c1 (configuration not stated) | 34 | – | log10 Koc (L/kg): 4.8; log10 vapour pressure (mmHg): -7.66
46 | CCCCCO[N+](=O)[O-] | – | 157 | log10 Henry constant (atm·m³/mol): -2.78; log10 vapour pressure (mmHg): 0.705
47 | c1ccc2c(c1)Cc1ccccc1N2 | – | 347 | –
48 | c1ccc2nc3ccc4ccccc4c3cc2c1 | – | – | log10 Koc (L/kg): 4.39; log10 BCF: 2.02
49 | C=O | – | -19.1 | log10 Henry constant (atm·m³/mol): -6.47; ready biodegradability: readily biodegradable
50 | CCCCCCCCCCCCCCCCCCC1CCCCC1 | 41.6 | 409 | –
51 | C=C1CCC2CC1C2(C)C (configuration not stated) | -61.2 | 166 | log10 vapour pressure (mmHg): 0.467
52 | CCNc1nc(NC(C)C)nc(OC)n1 | – | – | log10 Koc (L/kg): 2.64; log10 vapour pressure (mmHg): -5.54
53 | CC(C)NCC(O)c1ccc2ccccc2c1 (configuration not stated) | 108 | – | –
54 | O=C(C(=O)c1cc(Br)ccc1O)c1cc(Br)ccc1O | 212 | – | –
55 | CC(=O)c1occc1O | 100 | – | –
56 | O=CN1CCOCC1 | 21 | 239 | –
57 | O=C(O)c1ccccc1-c1ccccc1 | 114 | 344 | –
58 | Cc1ccc([N+](=O)[O-])cc1Cl | 66.5 | 260 | ready biodegradability: not readily biodegradable
59 | CCC(=O)N(C)C | -45 | 174 | –
60 | CCC(C(=O)O)c1ccc(N2Cc3ccccc3C2=O)cc1 (configuration not stated) | 183 | – | –
61 | CNC(=O)NC(C)=O | 180 | – | –
62 | C=C(CCC)CCC | – | 118 | –
63 | Cn1sc(Cl)cc1=O | – | – | ready biodegradability: not readily biodegradable
64 | O=C(O)CCC(=O)Nc1ccc(S(=O)(=O)Nc2nccs2)cc1 | 194 | – | –
65 | CC(F)(F)F | -111 | -47.5 | log10 vapour pressure (mmHg): 3.98
66 | CCOC(=O)Cc1[nH]nc2ccc(Cl)cc12 | 77 | – | –

Row | SMILES | melting point [°C] | boiling point [°C] | other results
67 | c1cncc([C@@H]2CCCN2)c1 | – | 270 | ready biodegradability: not readily biodegradable
68 | NS(=O)(=O)c1cc2c(cc1Cl)NC(Cc1ccc(F)cc1)NS2(=O)=O (configuration not stated) | 239 | – | –
69 | Cl.NCCc1ccc(O)cc1 | 272 | – | –
70 | BrCc1ccc(CBr)cc1 | 144 | 245 | –
71 | O=C1OS(=O)(=O)c2ccccc21 | 130 | – | –
72 | CCOCOCC | -66.5 | 88 | log10 vapour pressure (mmHg): 1.53
73 | CC(C)CBr | -119 | 91.1 | –
74 | Clc1c(Cl)c(Cl)c(C(Cl)Cl)c(Cl)c1Cl | 120 | 334 | –
75 | CCC(C)CC(C)(C)C (configuration not stated) | -120 | 126 | log10 vapour pressure (mmHg): 1.2
76 | CC(C)[N+](=O)[O-] | -91.3 | 120 | log10 vapour pressure (mmHg): 1.24; log10 BCF: 0.92; log10 biotransformation half-life (days): -1.2
77 | CCCCCCOc1ccc(N)cc1 | 44 | – | –
78 | O=C(O)c1ccoc1 | 122 | – | –
79 | C1CO1 | -112 | 10.6 | log10 Henry constant (atm·m³/mol): -3.83; log10 vapour pressure (mmHg): 3.12; ready biodegradability: readily biodegradable
80 | Cc1ccc2c(C)ccc(C(C)C)c2c1 | – | 294 | –
81 | OCCCCCCCO | 22.5 | 262 | –
82 | FC(F)(F)C(F)(I)C(F)(F)F | – | 40 | –
83 | O=C1C(O)=C(O)C(=O)c2ccccc21 | 282 | – | –
84 | CC(=O)OCCO | – | 188 | –
85 | CCCC(C)(CC)C(C)C (configuration not stated) | – | 166 | –
86 | CCOC(=O)C(C(C)=O)C(=O)OCC | – | 232 | –
87 | Cc1cccc(N(C)C(=S)Oc2ccc3ccccc3c2)c1 | 111 | – | –
